For test [1], the target named is Fibroblast growth factor receptor 3 (Homo sapiens) (UniProt P22607). Particulars: Compound concentration 20.0 uM, Protein concentration 2.0 uM, Result type QC Liability.
Description: Thermal Shift Assay. Domain: start/stop: P449-E759
For test [2], the target named is T1, Peregrin (Homo sapiens) (UniProt P55201).
T1 sequence (whole entry): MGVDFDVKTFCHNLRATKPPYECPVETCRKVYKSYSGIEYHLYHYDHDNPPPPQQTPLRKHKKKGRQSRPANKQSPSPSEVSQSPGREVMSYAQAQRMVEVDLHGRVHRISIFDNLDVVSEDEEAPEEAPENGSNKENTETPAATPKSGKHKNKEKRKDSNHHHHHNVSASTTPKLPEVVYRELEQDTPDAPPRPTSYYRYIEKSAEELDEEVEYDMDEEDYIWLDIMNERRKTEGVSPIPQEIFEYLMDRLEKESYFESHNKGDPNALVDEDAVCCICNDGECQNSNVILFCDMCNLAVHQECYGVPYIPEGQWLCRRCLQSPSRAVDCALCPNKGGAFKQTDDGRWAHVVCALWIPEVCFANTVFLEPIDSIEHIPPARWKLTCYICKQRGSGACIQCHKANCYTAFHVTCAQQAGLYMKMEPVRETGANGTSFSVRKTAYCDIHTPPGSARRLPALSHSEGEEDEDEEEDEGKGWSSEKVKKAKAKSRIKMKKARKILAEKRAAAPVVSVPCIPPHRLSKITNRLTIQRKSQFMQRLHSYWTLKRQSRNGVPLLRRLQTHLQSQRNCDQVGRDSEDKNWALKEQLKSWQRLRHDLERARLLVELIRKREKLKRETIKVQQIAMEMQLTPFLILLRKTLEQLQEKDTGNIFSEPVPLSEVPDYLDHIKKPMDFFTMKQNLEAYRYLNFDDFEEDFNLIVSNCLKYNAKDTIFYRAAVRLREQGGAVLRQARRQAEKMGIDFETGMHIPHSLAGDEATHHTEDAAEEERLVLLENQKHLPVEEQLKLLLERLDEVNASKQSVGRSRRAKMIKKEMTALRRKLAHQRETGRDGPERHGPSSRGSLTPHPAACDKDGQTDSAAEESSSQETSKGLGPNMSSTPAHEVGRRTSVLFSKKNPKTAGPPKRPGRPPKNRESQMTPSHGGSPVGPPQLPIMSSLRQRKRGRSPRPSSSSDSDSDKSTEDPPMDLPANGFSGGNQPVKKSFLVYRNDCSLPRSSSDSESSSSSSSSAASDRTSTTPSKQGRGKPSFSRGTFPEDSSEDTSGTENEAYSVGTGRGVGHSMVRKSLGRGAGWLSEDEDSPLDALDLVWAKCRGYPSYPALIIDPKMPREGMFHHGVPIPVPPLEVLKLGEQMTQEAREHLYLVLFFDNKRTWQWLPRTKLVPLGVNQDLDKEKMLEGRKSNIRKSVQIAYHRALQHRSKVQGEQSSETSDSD
The note with it: Compound concentration 20.0 uM, Protein concentration 2.0 uM, Result type QC Liability.

Structures are written as SMILES.

Sequence of Fibroblast growth factor receptor 3 (Homo sapiens) (P22607 23-806 limits assumed): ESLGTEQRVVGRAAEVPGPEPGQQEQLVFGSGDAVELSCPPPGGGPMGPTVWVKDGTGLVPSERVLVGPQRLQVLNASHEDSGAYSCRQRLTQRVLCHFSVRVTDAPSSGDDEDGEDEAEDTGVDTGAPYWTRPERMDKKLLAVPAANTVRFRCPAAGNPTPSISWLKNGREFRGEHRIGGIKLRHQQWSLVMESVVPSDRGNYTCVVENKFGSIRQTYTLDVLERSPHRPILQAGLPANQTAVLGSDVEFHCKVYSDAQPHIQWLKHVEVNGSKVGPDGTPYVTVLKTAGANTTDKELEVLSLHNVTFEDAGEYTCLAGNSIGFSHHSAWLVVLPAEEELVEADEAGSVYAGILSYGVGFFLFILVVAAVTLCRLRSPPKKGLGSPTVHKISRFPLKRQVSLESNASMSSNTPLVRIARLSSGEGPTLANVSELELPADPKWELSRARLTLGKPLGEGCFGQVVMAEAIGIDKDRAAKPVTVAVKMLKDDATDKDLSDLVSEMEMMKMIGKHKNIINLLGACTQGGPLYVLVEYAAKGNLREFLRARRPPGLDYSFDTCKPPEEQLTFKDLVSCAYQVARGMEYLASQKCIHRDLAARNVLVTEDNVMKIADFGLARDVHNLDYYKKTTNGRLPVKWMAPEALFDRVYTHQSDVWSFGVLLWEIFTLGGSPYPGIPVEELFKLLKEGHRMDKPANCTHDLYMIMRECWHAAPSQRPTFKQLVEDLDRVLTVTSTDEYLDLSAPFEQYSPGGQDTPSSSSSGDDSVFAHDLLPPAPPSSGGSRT

As a reminder, the ΔTm is the change in melting temperature against a reference sample. With `O=C(O)c1cccc(C2=C(c3cc(Cl)ccc3OCc3ccc(F)cc3F)CCC2)n1`, the ΔTm in test [1] is -0.33 °C; in test [2], -5.87 °C.

In the case of `O=S(=O)(Nc1ccc(C(O)(C(F)(F)F)C(F)(F)F)cc1)c1cccs1`, the ΔTm in test [1] is 0.59 °C; in test [2], -1.54 °C.

For `CN(C)[C@H]1C[C@H](n2cnc(-c3ccc(F)cn3)c2-c2ccnc3[nH]ccc23)C1`, the ΔTm in test [1] is 0.61 °C; in test [2], -0.35 °C.

As for `CCO[C@@H](Cc1ccc(OCCc2ccc(OS(C)(=O)=O)cc2)cc1)C(=O)O`, the ΔTm in test [1] was 0.52 °C; in test [2], -1.83 °C.

`O=C(NCCN1CCC2(CC1)C(=O)NCN2c1cccc(F)c1)c1ccc2ccccc2c1`: the ΔTm was 0.36 °C in test [1] and -3.2 °C in test [2].

`CN1CCN(c2ccc(-n3cc(-c4ccncc4OCC4CCNCC4)cn3)cc2)CC1`: the results for the ΔTm in test [1] and in test [2] were 1.33 °C and -0.97 °C, respectively.

Take `COc1ccccc1Nc1nc(-c2nn(Cc3c(F)cc(OCCCO)cc3F)c3ccccc23)ncc1OC`: the ΔTm in test [1] was 0.41 °C; in test [2], -1.09 °C.

Turning to `CC(C)c1cnn2c(NCc3ccccc3)cc(NCCCCCCN)nc12`, the ΔTm is 0.86 °C in test [1] and -0.13 °C in test [2].

With `COc1cc(C)c(S(=O)(=O)N(C)CCC(=O)N[C@H]2CC[C@@H](N3CCC4CN(C)CC4C3)CC2)c(C)c1` (stereo partly drawn), the ΔTm is 1.1 °C in test [1] and -3.59 °C in test [2].

In the case of `CC(C)Oc1ccc(Cc2ccc(NC3=NCCN3)cc2)cc1`, the ΔTm was 0.39 °C in test [1] and -3.24 °C in test [2].

For the compound `COc1cc(-c2cncc(-c3cnn(C4CCNCC4)c3)c2)cc(OC)c1OC`, the shift in melting temperature (ΔTm) in test [1] is 0.93 °C; in test [2], -0.73 °C.

Consider `Cc1ccc(NC(=O)c2ccc3c(c2)OCCO3)cc1NC(=O)c1ccc2nc(OCCN3CCCC3)ccc2c1`, for which the ΔTm in test [1] is 0.47 °C; in test [2] it was -1.27 °C.

`Cc1cc(=O)n(C)c2cc(N3C(=O)CC[C@H](NS(=O)(=O)CC(C)C)[C@H]3c3ccc(Cl)cc3)ccc12`: the figures for the ΔTm in test [1] and in test [2] were 0.86 °C and -0.8 °C, respectively.

In the case of `Cc1cn([C@@H](C)CC#N)c(=O)c2cc(Cn3nc(C(F)F)cc3Cl)nn12`, the results for the ΔTm in test [1] and in test [2] were 0.93 °C and -1.08 °C, respectively.

Consider `Cn1cc(-c2ccc(N(C(=O)NCc3ccccc3)[C@H]3CC[C@H](Nc4ccc(C#N)cn4)CC3)cc2)ccc1=O`, for which the ΔTm in test [1] is 1.75 °C; in test [2] it was -0.32 °C.

As for `CN(C)[C@H]1CCN(c2cc(C(F)(F)F)c(C#N)c(Nc3cccc(CCC(=O)O)c3)n2)C1`, the ΔTm in test [1] is 1 °C; in test [2], -2.19 °C.

As for `N=C(N)NCCC[C@H](NC(=O)CC1(CC(=O)N2CCN(C3c4ccccc4NC(=O)c4ccccc43)CC2)CCCC1)C(=O)NCCn1c(=O)n(-c2ccccc2)n(-c2ccccc2)c1=O` (stereo partly drawn), the ΔTm was -5.62 °C in test [1] and -2.29 °C in test [2].

As for `COc1ccccc1[C@@H]1CNCCC12CCN(C(=O)[C@](OC)(c1ccccc1)C(F)(F)F)CC2`, the ΔTm in test [1] was 0.45 °C; in test [2], -1.57 °C.

Turning to `O=C(O)CCCCN(CCc1ccccc1OCc1ccc(CCc2ccccc2)cc1)Cc1ccc(C(=O)O)cc1`, the figures for the ΔTm in test [1] and in test [2] were 0.8 °C and -2.23 °C, respectively.

As for `CC(=O)c1ccc2c(c1)/C(=C(/NC1CCN(C)CC1)c1ccc3c(c1)OCO3)C(=O)N2`, the ΔTm in test [1] was 0.39 °C; in test [2] it was -1.44 °C.

As for `COc1cccc(-c2c(C)c(Cc3c(F)cccc3C(F)(F)F)c3n(c2=O)[C@@H]([C@@H](N)c2ccccc2)CS3)c1F`, the ΔTm was -2.84 °C in test [1] and -4.1 °C in test [2].

Take `Fc1ccc(-c2nc(-c3ccc4ccccc4c3F)[nH]c2-c2ccncc2)cc1`: the ΔTm in test [1] is 1.19 °C; in test [2], 0.17 °C.

In the case of `CC(=O)O[C@H]1C(=O)[C@@]2(C)[C@H]([C@H](OC(=O)c3ccccc3)[C@]3(O)C[C@H](OC(=O)[C@H](O)[C@@H](NC(=O)c4ccccc4)c4ccccc4)C(C)=C1C3(C)C)[C@]1(OC(C)=O)CO[C@@H]1C[C@@H]2O`, the ΔTm in test [1] was 0.44 °C; in test [2] it was -2.68 °C.

On to `O=C(CNC(=O)c1ccc(-c2ccccc2)cc1)NC1CCCc2ccccc21` (stereo not drawn), for which the ΔTm was 0.59 °C in test [1] and -4.59 °C in test [2].

For `CC(=O)Nc1ncc(CN2CCC[C@H](Cc3cc(C)nc(C)c3)C2)s1`, the ΔTm was found to be 1 °C in test [1] and 0.17 °C in test [2].

`CC[C@@H]1C(=O)N(C)c2cnc(Nc3ccc(C(=O)NC4CCN(C)CC4)cc3OC)nc2N1C1CCCC1`: the ΔTm in test [1] came out at 0.55 °C; in test [2] it was 1.16 °C.

For the compound `CC(=O)N1CCC(c2ccc(C(=O)NC(=N)N)cc2C(F)(F)F)CC1`, the ΔTm in test [1] was 1.29 °C; in test [2], -2.69 °C.

For `Fc1ccc(-c2c3cccc(C(F)(F)F)c3nn2Cc2ccc(F)cc2Cl)cc1`, the ΔTm in test [1] is 0.67 °C; in test [2], -2.25 °C.

On to `CN1CCN(c2ccc(/C=C(\C#N)c3ccccc3Br)cc2)CC1`, for which the values for the ΔTm in test [1] and in test [2] were 1.23 °C and -2.48 °C, respectively.

Consider `CC(C)c1nc2c(c3c1[C@H](c1ccc(C(F)(F)F)cc1)OC31CCOCC1)[C@H](O)CC(C)(C)C2`, for which the ΔTm was 0.52 °C in test [1] and -3.09 °C in test [2].

On to `C=CC(=O)Nc1cc(-c2nn(C3CCC(N4CCN(C(C)=O)CC4)CC3)c3ncnc(N)c23)ccc1Oc1ccccc1` (stereo not drawn), for which the figures for the ΔTm in test [1] and in test [2] were 1.74 °C and -1.27 °C, respectively.

For `Cc1cc(-c2cc3ncccc3c(OC[C@H]3CCCNC3)n2)ccc1N(C)C`, the thermal shift (ΔTm) in test [1] is 3.21 °C; in test [2], -1.71 °C.

For `CCN(C)S(=O)(=O)Nc1cccc(-c2ccc3c(NC(=O)C4CC4)n[nH]c3c2)c1`, the ΔTm is 2.38 °C in test [1] and -0.56 °C in test [2].

For the compound `CCCCOc1c(C(=O)c2c(F)cc(C)cc2F)c[nH]c2nncc1-2`, the thermal shift (ΔTm) in test [1] was 0.71 °C; in test [2], -1.13 °C.

For `Cc1cc2ncnn2cc1Nc1ncc2c(n1)n(C1CCOCC1)c(=O)n2C`, the ΔTm was 0.53 °C in test [1] and -4.35 °C in test [2].

On to `CC1(C)CCC(CN2CCN(c3ccc(C(=O)NS(=O)(=O)c4ccc(NCC5CCOCC5)c([N+](=O)[O-])c4)c(Oc4cnc5[nH]ccc5c4)c3)CC2)=C(c2ccc(Cl)cc2)C1`, for which the ΔTm in test [1] is 1.11 °C; in test [2], -1.4 °C.

Turning to `CC(C)(O)CNC(=O)N1C(=O)N(c2cccc(C(F)(F)F)c2)C2=C(C(=O)CC2)[C@H]1c1ccc(C#N)cc1`, the ΔTm in test [1] is 0.72 °C; in test [2], -1.94 °C.

As for `CN1C(=O)c2ccccc2N(C)c2nc(Nc3cnn(C4CCNCC4)c3)ncc21`, the figures for the ΔTm in test [1] and in test [2] were 6.58 °C and -0.9 °C, respectively.

Turning to `CCCCC[C@H](O)/C=C/[C@H]1[C@H](O)CC(=O)[C@@H]1CCCCCCC(=O)O`, the ΔTm in test [1] was 0.41 °C; in test [2], -2.24 °C.

Consider `Cc1ccc(NC(=O)c2ccc(CN3CC[C@H](N(C)C)C3)c(C(F)(F)F)c2)cc1Nc1nccc(-c2cncnc2)n1`, for which the ΔTm is 0.68 °C in test [1] and -3.14 °C in test [2].

For `COCCN(C)c1ccc(NC(=O)/C=C(\C)c2ccc3ccccc3c2)c(C(=O)O)c1`, the ΔTm in test [1] is 1.15 °C; in test [2] it was -1.83 °C.

As to `Cc1cc(-c2ccnc(Nc3cnn(C)c3)n2)ccc1CNC(=O)N1CC(OC(C)C)C1`, the results for the ΔTm in test [1] and in test [2] were 2.34 °C and -1.39 °C, respectively.

Regarding `COc1cc(-c2cc([C@H](O)C3CC3)n3ncnc(N)c23)ccc1CO`, the ΔTm is 1.71 °C in test [1] and -2.32 °C in test [2].

With `CCN(CC)CCO[C@H]1CC[C@@]2(C)C(=CC[C@@H]3[C@@H]2CC[C@]2(C)C(=O)CC[C@@H]32)C1`, the ΔTm in test [1] is 0.44 °C; in test [2], -0.77 °C.

The record behind these values is ChEMBL document CHEMBL5308504, “Tm Shift (DSF) assay results for EUbOPEN Chemogenomics Library” (2023).
